# Results from paper PMC3225327 (Journal of Biomedical Science, 2011).
# Legend:
# PDE5 = experiment: Inhibition of PDE5 activity, two-step procedure; type: biochemical; settings: homogenate of guinea pig lungs or hearts
# Experimental: (§1) Activities of PDE1~5 in the homogenate of guinea pig lungs or hearts were measured by a two-step procedure according to the previous method, using cAMP with [^3H]-cAMP or cGMP with [^3H]-cGMP as substrates. […] The reagents and homogenate were mixed on ice, and the reaction was initiated by transferring the mixture to a water bath at 37°C. Following a 30-min incubation, the reaction was stopped by transferring the reaction vessel to a bath of boiling water for 3 min. After cooling on ice, 20 μl of a 1 mg/ml solution of Crotalus atrox snake venom was added to the reaction mixture, and the mixture was incubated at 37°C for 10 min. Unreacted [^3H]-cAMP or [^3H]-cGMP was removed by the addition of 500 μl of a 1-in-1 Tris-HCl (40 mM) buffer suspension of Dowex resin (1 × 8-200) with incubation on ice for 30 min. Each tube was then centrifuged at 3700 g for 2 min, and 150 μl of the supernatant was removed for liquid scintillation counting. […] The total protein in each fraction used was assayed according to a previous method. PDE activities are reported as nmol/mg/min.
# PDE4 = experiment: Inhibition of PDE4 activity, two-step procedure and Lineweaver-Burk analysis; type: biochemical, guinea pig
# Experimental: as §1
# [1] = tested on: total IgG2a, total and OVA-specific IgE; experiment: IgE and IgG2a levels in serum and BALF of sensitized and challenged mice (ELISA); type: in vivo, BABL/c mice; settings: 3~30 μmol/kg p.o.
# Experimental: According to the schedule (Figure 1), ten female BABL/c mice in each group were sensitized by an intraperitoneal (i.p.) injection of 20 μg of OVA emulsified in 2.25 mg of an aluminum hydroxide gel, prepared from aluminum sulfate hexadecahydrate, in a total volume of 100 μl on days 0 and 14. On day 21, these mice were injected with (i.p.) 100 μl of a mixture of 1% OVA and Freund's complete adjuvant (1:1). Mice were challenged via the airway using 1% OVA in saline for 30 min on days 28, 29, and 30 by ultrasonic nebulization. After the last of OVA challenges, AHR was assessed on day 32 (48 h after 1% OVA provocation) in each group. Each group of mice was orally (p.o.) administered the vehicle (control) or 3~30 μmol/kg of HDME 2 h before and 6 and 24 h after OVA provocation. For comparison, sham-treated mice were challenged with saline instead of 1% OVA (non-challenged). […] AHR was assessed using two methods: (1) in anesthetized ventilated mice, AHR was assessed as previously described by measuring changes in the airway resistance (RL, cmH2O/ml/sec) and lung dynamic compliance (Cdyn, ml/cmH2O) after challenge with aerosolized methacholine (MCh, 0.78~25 mg/ml) using the FlexiVent system (SCIREQ, Montreal, Quebec, Canada). Anesthetized (urethane 600 mg/kg and chloralose 120 mg/kg, i.p.), tracheostomized (stainless-steel cannula, 18 G) mice were mechanically ventilated (at 150 breaths/min, with a tidal volume of 10 ml/kg, positive end-expiratory pressure of 3 cmH2O). (2) in unrestrained animals by barometric plethysmography using a whole-body plethysmograph (WBP) and analyzed using software of Life Science Suite P3 Analysis Modules (Gould, LDS Test and Measurement LLC, Valley View, OH, USA). Mice were placed into the main chamber of the WBP, and the baseline enhanced pause (Penh) value was determined. Then mice were first nebulized with phosphate-buffered saline (PBS), and subsequently with increasing doses (6.25~50 mg/ml) of MCh for 3 min for each nebulization, followed by readings of breathing parameters for 3 min after each nebulization to determine Penh values.
# Twenty-four hours after Penh determination, these mice were anesthetized with pentobarbital (50 mg/kg, i.p.), and the lungs were lavaged via a tracheal tube with PBS (1 × 1.0 ml, 37°C). After lavage, blood was collected from the jugular vein and allowed to sit so that it would coagulate. The collected bronchoalveolar lavage fluid (BALF) and coagulated blood were respectively centrifuged at 630 g for 7 min and at 3700 g for 10 min at 4°C. After centrifugation, the BALF and serum supernatants were stored at -20°C until determination of cytokines, including interleukin (IL)-2, IL-4, IL-5, tumor necrosis factor (TNF)-α, and interferon (IFN)-γ by flow cytometric methods using mouse T helper (Th)1/Th2 cytokine CBA kits, and of total immunoglobulin (Ig)E or IgG2a using ELISA kits (Pharmingen, San Diego, CA, USA) according to the respective recommendations of the manufacturers. OVA-specific IgE was measured as described previously. Wells were coated with 100 μl of OVA (20 μg/ml) instead of the capture antibody. Levels are expressed in arbitrary units, where 1 arbitrary unit equals the optical density of the sample divided by the optical density of unchallenged mouse serum or BALF (standard). […] The number of inflammatory cells was counted using a hemocytometer (Hausser Scientific, Horsham, PA, USA). […]
# PDE1 = experiment: Inhibition of PDE1 activity, two-step procedure; type: biochemical; settings: homogenate of guinea pig lungs or hearts
# Experimental: as §1
# PDE2 = experiment: Inhibition of PDE2 activity, two-step procedure; type: biochemical; settings: homogenate of guinea pig lungs or hearts
# Experimental: as §1
compound,measurement,setting,value
"COc1cc(O)c2c(c1)O[C@H](c1ccc(OC)c(OC)c1)CC2=O [HDME, hesperetin-7,3'-O-dimethylether]",IC50,PDE5,> 100 µM
same,mode of PDE4 inhibition,"PDE4; Lineweaver-Burk analysis, inhibitor 1~10 μM",competitively inhibited
same,Ki,"PDE4; Lineweaver-Burk analysis, inhibitor 1~10 μM, substrate cAMP, read-out: dissociation constant for inhibitory binding (Ki), PDE4",2.1 ± 1.3 µM
same,IC50,PDE4; homogenate of guinea pig lungs or hearts,3 ± 0.9 µM
same,effect on OVA-specific IgE level in the BALF,[1],dose-dependently and significantly suppressed
same,effect on OVA-specific IgE level in the serum,[1],dose-dependently and significantly suppressed
same,effect on total IgE level in the BALF,[1],dose-dependently and significantly suppressed
same,effect on total IgE level in the serum,[1],dose-dependently and significantly suppressed
same,effect on total IgG2a level in the serum,[1],dose-dependently and significantly enhanced
same,IC50,PDE1,22.1 ± 6.4 µM
same,IC50,PDE2,> 100 µM
